Data on three compounds can be found in ChEMBL document CHEMBL2069184, “A Back-to-Front Fragment-Based Drug Design Search Strategy Targeting the DFG-Out Pocket of Protein Tyrosine Kinases” (ACS Med Chem Lett, 2012).

For orientation: IC50 means the concentration at which inhibition is half-maximal. As usually defined, the inhibition is the share of the control response that was lost under treatment. Read a low inhibition as a weak effect. By Ki is commonly meant a dissociation constant, usually derived from enzyme kinetics or from competition with a known ligand.

In test [1] the target is T1, Vascular endothelial growth factor receptor 2 (Homo sapiens, UniProt P35968). Nature of the test: Inhibition of human phosphorylated N-terminal-His6 tagged VEGFR2 catalytic domain using 5-FAM-EEPLYWSFPAKKK-CONH2 as substrate after 60 mins by mobility shift assay.
The target of test [2] is T1, Vascular endothelial growth factor receptor 2. Nature of the test: Inhibition of human unphosphorylated N-terminal-His6 tagged VEGFR2 catalytic domain using 5-FAM-EEPLYWSFPAKKK-CONH2 as substrate after 60 mins by mobility shift assay.
For test [3] the target is unchanged. The following applies: 100 uM.

T1 sequence (P35968 whole entry, the tested form may be a part): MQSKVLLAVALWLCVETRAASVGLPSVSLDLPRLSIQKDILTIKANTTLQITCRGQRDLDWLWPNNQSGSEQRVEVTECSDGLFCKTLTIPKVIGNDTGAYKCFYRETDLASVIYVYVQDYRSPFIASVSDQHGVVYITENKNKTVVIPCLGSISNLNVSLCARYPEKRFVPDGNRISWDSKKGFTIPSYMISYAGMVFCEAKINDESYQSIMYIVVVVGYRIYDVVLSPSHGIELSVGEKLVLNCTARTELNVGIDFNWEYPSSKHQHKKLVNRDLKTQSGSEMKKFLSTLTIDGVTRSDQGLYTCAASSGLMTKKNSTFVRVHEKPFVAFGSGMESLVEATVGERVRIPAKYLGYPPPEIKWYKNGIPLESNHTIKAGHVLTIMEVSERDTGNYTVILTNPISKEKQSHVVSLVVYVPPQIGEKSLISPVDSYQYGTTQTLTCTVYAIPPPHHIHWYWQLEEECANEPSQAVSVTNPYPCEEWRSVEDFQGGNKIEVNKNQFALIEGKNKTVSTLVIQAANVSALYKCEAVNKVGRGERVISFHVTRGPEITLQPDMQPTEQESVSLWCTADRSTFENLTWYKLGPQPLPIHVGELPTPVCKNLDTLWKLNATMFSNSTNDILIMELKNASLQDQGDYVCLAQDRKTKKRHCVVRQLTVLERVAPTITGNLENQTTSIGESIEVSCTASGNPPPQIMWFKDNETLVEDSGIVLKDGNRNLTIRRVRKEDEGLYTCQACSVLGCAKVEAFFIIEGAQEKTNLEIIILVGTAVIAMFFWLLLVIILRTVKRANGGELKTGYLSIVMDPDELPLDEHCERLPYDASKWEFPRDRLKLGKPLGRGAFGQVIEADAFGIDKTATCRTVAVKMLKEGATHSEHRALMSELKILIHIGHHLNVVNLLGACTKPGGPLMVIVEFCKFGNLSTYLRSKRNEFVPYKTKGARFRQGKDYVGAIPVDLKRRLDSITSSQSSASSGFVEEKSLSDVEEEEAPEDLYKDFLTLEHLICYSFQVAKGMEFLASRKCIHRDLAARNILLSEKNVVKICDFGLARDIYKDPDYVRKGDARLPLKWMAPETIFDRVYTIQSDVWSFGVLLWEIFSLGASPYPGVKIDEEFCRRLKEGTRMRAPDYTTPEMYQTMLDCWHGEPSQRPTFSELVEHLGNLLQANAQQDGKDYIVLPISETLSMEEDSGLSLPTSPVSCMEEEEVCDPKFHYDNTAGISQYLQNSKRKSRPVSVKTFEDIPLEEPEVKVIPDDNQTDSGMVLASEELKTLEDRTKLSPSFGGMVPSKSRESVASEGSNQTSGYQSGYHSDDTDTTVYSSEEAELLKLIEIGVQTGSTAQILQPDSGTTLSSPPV

For the compound `c1ccc2c3c([nH]c2c1)-c1n[nH]cc1CCC3`, the IC50 worked out at 0.86 µM in test [1] and 0.62 µM in test [2].
In the same order, the values of `O=C(Nc1cccc(C(F)(F)F)c1)Nc1ccccc1Cl` are > 100 µM and 4.4 µM.
Turning to `Cc1oc(-c2ccccc2)nc1COc1cccc(CO)c1`, the inhibition in test [3] came out at 8%. For the same compound, the 50% inhibitory concentration (IC50) in test [1] was > 100 µM; in test [2], 50 µM. Besides, in test [2], the Ki came out at 25 µM.
